Data on five compounds can be found in patent publication US4264497A, “1,5-Benzothiazepine compounds” (Maruko Seiyaku Co., Ltd., priority 1978, dated 1981).

The structures appear in SMILES notation. Counter-ions that a name gives are not always drawn.

The subject of data set [1] is Indomethacin induced ulcer. Briefly: Anti-ulcer activity, indomethacin induced ulcer, rats. The note with it: p.o. The data set is classed as in vivo.
In data set [2] the test system is Aspirin induced ulcer. Briefly: Anti-ulcer activity, aspirin induced ulcer, rats. To be noted: s.c., 5 mg/kg. The data set is classed as in vivo.
In data set [3] the test system is mice. Briefly: Acute toxicity LD50, oral, in mice. The note with it: oral.
Data set [4] concerns Gastric secretion. Briefly: Gastric secretion inhibitory activity, observed in the anti-ulcer test using aspirin. It is filed as in vivo. To be noted: observed simultaneously in anti-ulcer test using aspirin (rats, s.c., 5 mg/kg).
Data set [5] relates to Corediastasis. Briefly: Corediastasis (side effect), intraperitoneal. The data set is classed as in vivo.
Data set [6] deals with ulcer. Briefly: Anti-ulcer activity, overall statement. The data set is classed as in vivo. To be noted: in words, vs Glycopyrrolate.
For data set [7], the system named is mice. Briefly: Acute toxicity, overall comparison. It is filed as in vivo. The note with it: in words, vs Glycopyrrolate.
For data set [8], the system named is Aspirin-Stress induced ulcer. Briefly: Anti-ulcer activity, aspirin-stress induced ulcer, mice. The data set is classed as in vivo. To be noted: s.c., 5 mg/kg.
Data set [9] has as its system mice. Briefly: Acute toxicity LD50, intravenous, in mice. To be noted: intravenous.
In data set [10] the test system is Pylorus Ligature induced ulcer. Briefly: Anti-ulcer activity, pylorus ligature ulcer, rats. The data set is classed as in vivo. To be noted: s.c., 20 mg/kg.
The test system of data set [11] is Stress induced ulcer. Briefly: Anti-ulcer activity, stress induced ulcer, mice. It is filed as in vivo. The note with it: p.o., 5 mg/kg.
Data set [12] concerns Desalivation. Briefly: Desalivation activity (side effect), relative to racemate. The note with it: for Desalivation Activity: relative, racemic mixture = 1, side effect. The data set is classed as in vivo.
A short description of data set [13]: Acute toxicity LD50, oral, in mice. To be noted: mouse, in vivo, po.
Data set [14] deals with Stress ulcer. Briefly: Anti-ulcer activity (Stress), relative to racemate. The data set is classed as in vivo. To be noted: for Anti-ulcer Activity (Stress): relative, racemic mixture = 1.
Data set [15] is described as follows: Acute toxicity LD50, intravenous, in mice. The note with it: mouse, in vivo, iv.
Data set [16] deals with Anticholinergic activity. Briefly: Anticholinergic activity (relative to racemate). It is filed as in vivo.

With `CN1CCN(C[C@H]2C(=O)Nc3ccccc3S[C@H]2c2ccccc2)CC1` (relative stereo) [Compound A], the “Anti-ulcer Activity, % Inhibitory” value turned out to be 99.0% in [1] (A: 5 mg/kg); 100.0% in data set [2]; 51.8% in [8]; 100.0% in data set [10]; 91.6% in data set [11]. Besides, the “LD50 (in mice), Oral” value in [3] (mice, test compounds A-C) amounted to 650 mg/kg. Besides, in data set [4], the “Gastric secretion inhibitory activity, % Inhibitory” value is listed as 90%. Further, the “corediastasis ED20” value in [5] (in vivo, ip) amounted to 0.31 mg/kg. In data set [6], the “anti-ulcer activity compared with Glycopyrrolate” value was “equal or higher anti-ulcer activity”. Besides, in [7], the “degree of acute toxicity compared with Glycopyrrolate” value is reported as “approximately the same degree of acute toxicity as Glycopyrrolate”. The “LD50 (in mice), Intravenous” value in data set [9] (mice, test compounds A-C) is 65 mg/kg.
For `CN1CCN(C[C@H]2C(=O)Nc3ccccc3S[C@H]2c2ccccc2)CC1` (relative stereo) [Racemic Mixture, (±)-cis-2,3-dihydro-3-[(4-methylpiperazinyl)methyl]-2-phenyl-1,5-benzothiazepin-4(5H)-one], in [12], the “Desalivation Activity” value was determined as 1. The LD50 is 650 mg/kg in data set [13] and 65 mg/kg in data set [15]. Also, in [14], the “Anti-ulcer Activity (Stress)” value was 1.
For the compound `CN1CCN(C[C@H]2C(=O)Nc3ccccc3S[C@H]2c2ccccc2)CC1` (single isomer, unassigned) [(-) Form, cis-(-)-2,3-dihydro-3-[(4-methylpiperazinyl)methyl]-2-phenyl-1,5-benzothiazepin-4(5H)-one], in [12] ((-) form vs racemate), the “desalivation activity as a side-effect, degree relative to racemate” value is on record as “about 1/2”. Further, the “Desalivation Activity” value in [12] is 0.6. Further, the “anticholinergic activity relative to the corresponding racemate” value in data set [16] ((-) form vs racemate) was determined as 2 times. Also, in data set [16] (relative, racemic mixture = 1), the “Anticholinergic Activity” value came to 2. Besides, the “acute toxicity by oral administration, degree relative to racemate” value in [3] ((-) form vs racemate) was 3/4. Further, the LD50 is 870 mg/kg in data set [13] and 160 mg/kg in data set [15]. In data set [14] ((-) form vs racemate), the “anti-ulcer activity relative to the corresponding racemate” value is 4 times. The “Anti-ulcer Activity (Stress)” value in [14] amounted to 4. In [9] ((-) form vs racemate), the “acute toxicity by intravenous administration, degree relative to racemate” value is recorded as 2/5.
Regarding `C[N+]1(C)CCC(OC(=O)C(O)(c2ccccc2)C2CCCC2)C1` (centres unmarked) [Compound B, Glycopyrrolate], the “Anti-ulcer Activity, % Inhibitory” value came to 88.6% in data set [1] (B: 20 mg/kg); 100.0% in data set [2]; 47.6% in data set [8]; 100.0% in data set [10]; 81.9% in [11]. Further, the “Gastric secretion inhibitory activity, % Inhibitory” value in data set [4] is listed as 90%. Also, in data set [5] (in vivo, ip), the “corediastasis ED20” value worked out at 0.037 mg/kg.
Take `CN1[C@@H]2CC[C@H]1CC(OC(=O)C(CO)c1ccccc1)C2` (some centres unmarked) [Compound C, Atropin Sulfate]: the “Anti-ulcer Activity, % Inhibitory” value in [2] came to 79.3%; in data set [8] it was 48.0%; in data set [10] it was 13.0%; in data set [11] it was 82.3%. In data set [4], the “Gastric secretion inhibitory activity, % Inhibitory” value was found to be 70%. In data set [5] (intraperitoneal administration), the “corediastasis ED20” value is 0.076 mg/kg.
